# ChEMBL document CHEMBL1201862, “PubChem BioAssay data set” (2004)
# The source made the active and inactive calls.
# Assays:
# Protein RecA = target: T1, Protein RecA (Mycobacterium tuberculosis, UniProt P9WHJ3); experiment: Fluorescence Cell-Free Homogeneous Dose Retest to Identify Inhibitors of RecA-Intein Splicing Activity. [Related pubchem assays (depositor defined):AID2097, AID2223, AID489010, AID492950]; assay type: functional
# T1 sequence (P9WHJ3 whole entry): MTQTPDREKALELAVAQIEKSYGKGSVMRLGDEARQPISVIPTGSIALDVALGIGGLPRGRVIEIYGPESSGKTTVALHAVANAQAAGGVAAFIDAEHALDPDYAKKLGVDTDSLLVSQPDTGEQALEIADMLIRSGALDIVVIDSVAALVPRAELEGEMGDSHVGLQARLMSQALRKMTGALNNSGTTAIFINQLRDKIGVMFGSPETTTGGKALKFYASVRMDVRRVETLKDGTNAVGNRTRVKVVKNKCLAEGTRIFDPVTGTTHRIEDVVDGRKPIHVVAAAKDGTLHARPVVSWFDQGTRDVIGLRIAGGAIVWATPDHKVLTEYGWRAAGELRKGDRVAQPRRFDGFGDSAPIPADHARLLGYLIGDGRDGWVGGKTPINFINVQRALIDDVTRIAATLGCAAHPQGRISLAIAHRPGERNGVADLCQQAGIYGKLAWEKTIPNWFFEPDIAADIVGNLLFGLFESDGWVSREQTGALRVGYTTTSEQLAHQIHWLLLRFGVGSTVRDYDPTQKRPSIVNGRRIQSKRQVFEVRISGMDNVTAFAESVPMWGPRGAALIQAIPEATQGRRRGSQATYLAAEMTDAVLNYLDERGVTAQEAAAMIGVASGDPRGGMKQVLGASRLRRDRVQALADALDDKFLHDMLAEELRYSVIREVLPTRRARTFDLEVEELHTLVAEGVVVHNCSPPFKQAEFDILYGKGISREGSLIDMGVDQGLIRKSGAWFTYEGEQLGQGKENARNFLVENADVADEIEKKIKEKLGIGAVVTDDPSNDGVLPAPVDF
# [1] = target: T2, Replicative DNA helicase DnaB (Mycobacterium tuberculosis, UniProt P9WMR3); experiment: DnaB intein splicing inhibitors, dose response, biochemical, cell-free fluorescence (AID 449749); assay type: functional
# T2 sequence (P9WMR3 whole entry): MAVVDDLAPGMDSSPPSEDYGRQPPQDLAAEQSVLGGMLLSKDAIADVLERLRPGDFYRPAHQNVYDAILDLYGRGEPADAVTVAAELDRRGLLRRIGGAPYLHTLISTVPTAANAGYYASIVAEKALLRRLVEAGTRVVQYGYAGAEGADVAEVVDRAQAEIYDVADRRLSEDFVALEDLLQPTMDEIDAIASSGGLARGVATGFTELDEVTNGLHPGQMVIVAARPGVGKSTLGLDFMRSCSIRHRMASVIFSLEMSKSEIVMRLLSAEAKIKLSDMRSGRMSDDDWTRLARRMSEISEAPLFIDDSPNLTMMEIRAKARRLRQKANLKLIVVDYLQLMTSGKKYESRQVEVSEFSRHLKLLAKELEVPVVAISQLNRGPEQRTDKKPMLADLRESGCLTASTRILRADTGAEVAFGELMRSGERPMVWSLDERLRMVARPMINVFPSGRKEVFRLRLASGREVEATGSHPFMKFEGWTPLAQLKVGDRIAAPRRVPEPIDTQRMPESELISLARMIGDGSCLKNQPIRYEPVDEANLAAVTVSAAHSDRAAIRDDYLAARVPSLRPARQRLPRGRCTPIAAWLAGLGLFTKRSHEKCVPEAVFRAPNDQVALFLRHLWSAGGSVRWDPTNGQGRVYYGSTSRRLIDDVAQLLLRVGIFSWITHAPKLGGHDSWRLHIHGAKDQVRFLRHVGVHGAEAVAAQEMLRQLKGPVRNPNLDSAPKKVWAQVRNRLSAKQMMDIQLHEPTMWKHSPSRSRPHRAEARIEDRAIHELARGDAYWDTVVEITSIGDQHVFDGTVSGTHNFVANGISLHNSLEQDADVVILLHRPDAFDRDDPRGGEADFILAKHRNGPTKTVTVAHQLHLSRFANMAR
# [2] = target: T3, Carboxy-terminal domain RNA polymerase II polypeptide A small phosphatase 1 (Homo sapiens, UniProt Q9GZU7); experiment: inhibitors of CTDSP1, concentration-response testing, biochemical assay, absorbance-based, actives from ultra-high-throughput screening (AID 540297); assay type: functional
# T3 sequence (Q9GZU7 whole entry): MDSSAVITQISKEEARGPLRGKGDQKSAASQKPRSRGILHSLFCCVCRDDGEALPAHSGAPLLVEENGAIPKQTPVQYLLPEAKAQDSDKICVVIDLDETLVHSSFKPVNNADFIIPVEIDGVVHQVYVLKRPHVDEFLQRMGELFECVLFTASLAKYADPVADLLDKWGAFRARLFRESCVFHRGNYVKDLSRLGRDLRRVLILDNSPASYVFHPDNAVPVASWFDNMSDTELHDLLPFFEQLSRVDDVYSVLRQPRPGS
# H4 = experiment: Luminescence Cell-Based Dose Response HTS to Identify Activators of 5'UTR Stem-Loop Driven Prion Protein mRNA Translation in H4 Neuroglioblastoma Cells. [Related pubchem assays: 1829 (Project Summary), 1814 (Primary HTS)]; assay type: functional; details: Homo sapiens
# [3] = Luminescence Cell-Based Dose Response HTS to Identify Activators of Luciferase Translation or Activity in H4 […] Cells. [Related pubchem assays: 1829 (Project Summary), 1814 (Primary HTS)]; assay type: functional
# [4] = Luminescence Cell-Based Dose Confirmation HTS to Identify Activators of 5'UTR Stem-Loop Driven Alpha-Synuclein mRNA Translation in H4 Neuroglioblastoma Cells. [Related pubchem assays: 1829 (Project Summary), 1814 (Primary HTS)]; assay type: functional
# [5] = Luminescence Cell-Based Dose Response HTS to Identify Inhibitors of 5'UTR Stem-Loop Driven Prion Protein mRNA Translation in H4 Neuroglioblastoma Cells. [Related pubchem assays: 1827 (Project Summary), 1813 (Primary HTS)]; assay type: functional
# [6] = inhibitors of firefly luciferase expression or activity, dose response, H4 neuroglioma cells, luminescence (AID 1990); assay type: functional, cell-based
# Bcl-2-related protein A1 = target: T4, Bcl-2-related protein A1 (Mus musculus, UniProt Q07440); assay type: functional;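 also: confirmatory dose–response counterscreen on Bfl-1, used to check hits from a UBC13 polyubiquitin inhibitor campaign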
# T4 sequence (Q07440 whole entry): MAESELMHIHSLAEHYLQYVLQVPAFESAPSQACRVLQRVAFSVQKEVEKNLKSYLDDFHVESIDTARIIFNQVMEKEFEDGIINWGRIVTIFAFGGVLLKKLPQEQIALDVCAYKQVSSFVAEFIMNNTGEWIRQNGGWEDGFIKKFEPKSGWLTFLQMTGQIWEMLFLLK
# [7] = target: T5, Ubiquitin-conjugating enzyme E2 N (Homo sapiens, UniProt P61088); assay type: functional
# T5 sequence (P61088 whole entry): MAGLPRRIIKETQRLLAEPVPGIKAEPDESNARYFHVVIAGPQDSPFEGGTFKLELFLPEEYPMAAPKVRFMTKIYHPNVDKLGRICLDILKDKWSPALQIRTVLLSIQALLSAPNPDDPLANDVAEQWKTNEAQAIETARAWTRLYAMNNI
# [8] = inhibitors of SNCA 5'UTR-driven reporter translation, confirmation, H4 neuroglioma cells, luminescence (AID 1988); assay type: functional, cell-based
# [9] = target: T5, Ubiquitin-conjugating enzyme E2 N; assay type: functional; remark: listed apart in the source
# [10] = Luminescence Cell-Based Dose Retest to Confirm Inhibitors of Cancer Stem Cells. [Related pubchem assays (depositor defined):AID2717, AID2721]; assay type: functional; details: Homo sapiens
# [11] = growth suppression of PTEN-null colon cells, dose response, cell-based, HCT116 PTEN knockout (AID 1047); assay type: functional;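 also: HCT116 colon tumor cells with PTEN knocked out; cells exposed to compound for 60 hours before readout; potency for loss of cell viability measured by luminescence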
# [12] = growth suppression of beta-catenin-knockout colon cells, dose response, cell-based, HCT116, human colon tumor (AID 1045); assay type: functional;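 also: HCT116 colon tumor cells with beta catenin knocked out; cells exposed to compound for 60 hours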
# [13] = inhibitors of intracellular T. cruzi replication, confirmation, NIH3T3 host cells, beta-gal luminescence (AID 2044); assay type: functional, cell-based;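 also: intracellular parasites grown in NIH/3T3 mouse fibroblasts as host cells; luminescent beta-galactosidase reporter signal from transgenic T. cruzi replicating inside host cells; inhibitors lower the luminescence signal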
# [14] = cytotoxicity toward NIH3T3 fibroblasts, dose response, counter-screen, cell-based, ATP luminescence, mouse fibroblasts (AID 2010); assay type: functional;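 also: cells exposed to compound for about 90 hours before reading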
# [15] = target: T6, Rac GTPase-activating protein 1 (Homo sapiens, UniProt Q9H0H5); experiment: MgcRacGAP GTPase-activating activity inhibitors, confirmation, biochemical, ADP Hunter fluorescence, primary and confirmatory (AID 624330); assay type: functional
# T6 sequence (Q9H0H5 whole entry): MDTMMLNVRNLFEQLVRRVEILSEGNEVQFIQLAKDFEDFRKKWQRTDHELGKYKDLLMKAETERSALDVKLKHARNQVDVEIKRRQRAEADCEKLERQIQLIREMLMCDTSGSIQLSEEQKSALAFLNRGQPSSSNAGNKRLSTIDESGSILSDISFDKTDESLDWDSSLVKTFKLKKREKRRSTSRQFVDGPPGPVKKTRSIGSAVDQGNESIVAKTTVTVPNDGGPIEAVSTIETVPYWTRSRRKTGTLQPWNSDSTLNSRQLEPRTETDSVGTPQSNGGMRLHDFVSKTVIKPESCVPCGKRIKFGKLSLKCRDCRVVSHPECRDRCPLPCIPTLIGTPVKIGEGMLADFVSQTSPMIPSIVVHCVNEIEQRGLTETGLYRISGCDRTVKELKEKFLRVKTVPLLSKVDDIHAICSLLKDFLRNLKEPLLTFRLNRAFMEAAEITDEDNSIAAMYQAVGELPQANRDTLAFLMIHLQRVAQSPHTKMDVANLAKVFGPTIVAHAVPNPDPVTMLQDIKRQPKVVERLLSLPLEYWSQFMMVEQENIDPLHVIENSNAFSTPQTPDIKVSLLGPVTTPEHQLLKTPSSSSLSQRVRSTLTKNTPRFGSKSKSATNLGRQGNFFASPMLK
smiles,measurement,setting,value
Cc1ccc(NC(=O)c2cnc(SCC(=O)NCC3CCCO3)n(C)c2=O)cc1 (centres undefined),EC50,Protein RecA,30.9 µM (active)
same,AC50,[1],10.1 µM (active)
Cn1c(SCC(=O)NC(=O)NCc2ccco2)nnc1-c1ccccc1,IC50,[2],6.39 µM (active)
CC(O)/C=C/c1cccc[n+]1C (centres undefined),IC50,[2],12.2 µM (active)
Cc1ccc(-n2nc(C)c3c2OC(N)=C(C#N)C3c2ccc(F)cc2)cc1 (centres undefined),EC50,Protein RecA,6.09 µM (active)
same,EC50,H4,> 120 µM (not active)
same,EC50,[3],> 120 µM (not active)
same,AC50,[1],14.2 µM (active)
same,EC50,[4],> 120 µM (not active)
CC1(C)Cc2c(sc(NC(=O)COc3ccc(Cl)cc3Cl)c2C(N)=O)C(C)(C)N1,EC50,[5],18.7 µM (active)
same,EC50,[6],17.3 µM (active)
same,IC50,Bcl-2-related protein A1,> 20 µM (inactive)
same,IC50,[7],4.55 µM (active)
same,EC50,[8],> 120 µM (not active)
same,IC50,[9],2.86 µM (active)
COc1ccc(C(=O)C2C(c3ccc(-c4ccccc4[N+](=O)[O-])o3)NC(=O)NC2(O)C(F)(F)F)cc1 (centres undefined),EC50,Protein RecA,21.5 µM (active)
same,AC50,[1],14.6 µM (active)
COc1ccc(-c2sc3ccccc3c2-c2ccc(OCCN3CCOCC3)cc2)cc1,IC50,Bcl-2-related protein A1,> 20 µM (inactive)
same,IC50,[7],15.1 µM (active)
same,AC50,[10],0.842 µM (active)
same,IC50,[9],> 20 µM (inactive)
C/C(CC(=O)Nc1cccnc1)=N\NC(=O)c1ccc([N+](=O)[O-])c(Cl)c1,EC50,Protein RecA,4.18 µM (active)
same,AC50,[1],20.4 µM (active)
O=C1c2cccc3cccc(c23)C(=O)N1CCN1CCN(CC(O)COc2ccc3ccccc3c2)CC1 (centres undefined),IC50,Bcl-2-related protein A1,> 20 µM (inactive)
same,IC50,[7],2.49 µM (active)
same,AC50,[10],5.08 µM (active)
same,EC50,[11],12 µM (active)
same,EC50,[12],9.47 µM (active)
same,IC50,[9],3.02 µM (active)
Cc1nn(-c2ccccc2)c2c1C(c1ccco1)C(C#N)=C(N)O2 (centres undefined),EC50,Protein RecA,4.03 µM (active)
same,AC50,[1],5.88 µM (active)
CCCc1n(CC(O)COC2CCCCC2)c2ccccc2[n+]1C (centres undefined),IC50,[2],14.3 µM (active)
CCOc1cc(/C=N/NC(=O)CSc2nnc(C)s2)ccc1OCc1ccccc1Cl,IC50,[2],10.1 µM (active)
CCOC(=O)CSCC(=O)N1N=C(c2cccs2)CC1c1ccc(F)cc1 (centres undefined),EC50,Protein RecA,15.1 µM (active)
same,AC50,[1],17.7 µM (active)
CC1CCC(NC(=O)Cn2c(=O)oc3cc(S(=O)(=O)N4CCCC4)ccc32)CC1 (centres undefined),IC50,[2],25.5 µM (active)
O=C(COc1ccc(-n2cnnn2)cc1)Nc1cccc(Cl)c1Cl,IC50,[2],6.36 µM (active)
O=C(CCCCn1c(=O)c2ccccc2n(Cc2ccccc2)c1=O)NC1CCN(Cc2ccccc2)CC1,EC50,[13],0.695 µM (active)
same,IC50,Bcl-2-related protein A1,> 20 µM (inactive)
same,IC50,[7],9.28 µM (active)
same,EC50,[14],> 60 µM (not active)
same,IC50,[9],5.17 µM (active)
O=C(N/N=C/c1ccc(OC(=O)c2cccs2)cc1)c1ccc(F)cc1,IC50,[2],> 80 µM (inactive)
C#CCOCCOCCOCCNc1nc(N2CCN(C(=O)[C@H](CCCCN)n3cc(CN)nn3)CC2)nc(N2CCN(C(=O)[C@H](CCC(=O)O)n3cc([C@@H](N)CCCCN)nn3)CC2)n1,IC50,Bcl-2-related protein A1,> 20 µM (inactive)
same,IC50,[15],190 µM (active)
same,IC50,[7],2.85 µM (active)
same,IC50,[9],2.79 µM (active)
CC(C)Oc1cccc(C(=O)C2CCCN(C(=O)c3csnn3)C2)c1 (centres undefined),EC50,Protein RecA,> 380 µM (inactive)
same,AC50,[1],> 380 µM (inactive)
